Molecules are shown by their SMILES.

The target in series [1] is proteins in rat lung membranes. Kind of series: Competitive binding assay with [3H]-CP2117 on rat lung membranes (RLM). Particulars: given as Log IC50 (negative values); displacement of 10 nM [3H]-CP2117, overnight at 4° C.; ND- not detected.
Series [2] relates to PGE2 release in J774 macrophages. Description: PGE2 release from LPS/IFNγ-stimulated J774 macrophages (radioimmunoassay). The format is cell-based, murine. The settings on record: 30 min pre-treatment, 24 hour incubation; for activity at 1 µM / activity at 10 µM: Mus musculus, J774, 24 h; for activity at 1 µM: read-out: Effects on PGE2 release in J774 macrophages at 1 μM as a % of LPS/IFNγ control, mean; for activity at 10 µM: read-out: Effects on PGE2 release in J774 macrophages at l0 μM as a % of LPS/IFNγ control, mean.

`COc1cc(Br)c(/C(C)=N/OCc2ccc([N+](=O)[O-])cc2)cc1O` [CP302108-Major, (E)-2′-Bromo-5′-hydroxy-4′-methoxyacetophenone O-4-Nitrobenzyl Oxime] displayed a melting point of 136.8 to 138.4 °C.
On to `C/C(=N\OCc1ccc([N+](=O)[O-])cc1)c1ccc(O)c(F)c1` [CP9132, 3′-Fluoro-4′-hydroxyacetophenone-O-4-nitrobenzyloxime], for which the melting point lay within 93 to 94 °C.
For `COc1ccc(/C(C)=N/OCc2cccc(F)c2)cc1F` [CP9125, 3′-Fluoro-4′-methoxyacetophenone-O-3-fluorobenzyloxime], the melting point was 67 °C. The “Log IC50 RLM binding” value in series [1] is on record as −5.5.
Regarding `COc1ccc(/C(C)=N/OCc2ccc([N+](=O)[O-])cc2)cc1F` [CP9123, 3′-Fluoro-4′-methoxyacetophenone-O-4-nitrobenzyloxime], the melting point was in the range of 67 to 68 °C.
`COc1ccc(/C(C)=N/OCc2ccc([N+](=O)[O-])cc2)cc1OC(C)C` [CP30254, (E)-3′-Isopropoxy-4′-methoxyacetophenone O-4-Nitrobenzyl Oxime] showed a melting point of 44.5 to 46.1 °C.
Still for that read-out and setting: the figure for `COc1ccc(/C(C)=N/OCc2ccc(F)c(F)c2)cc1F` [CP9126, 3′-Fluoro-4′-methoxyacetophenone-O-3,4-difluorobenzyloxime] is 62 to 63 °C.
As for `COc1ccc(C(=NOCc2ccc([N+](=O)[O-])cc2)[C@H]2CC[C@@H](CCO)CC2)cc1O` [CP30348-2, cis-(3-Hydroxy-4-methoxyphenyl)-4-(2-hydroxyethyl)cyclohexylmethanone O-4-Nitrobenzyl Oxime], in series [2], the “Effects on PGE2 release in J774 macrophages at 1 μM as a % of LPS/IFNγ control, mean” value is reported as 85 % of LPS/IFNγ control. For the same compound, the “Effects on PGE2 release in J774 macrophages at l0 μM as a % of LPS/IFNγ control, mean” value in series [2] (l0 μM) is recorded as 111 % of LPS/IFNγ control. In addition, the “Log IC50 RLM binding” value in series [1] is reported as −5.6.
On to `C/C(=N\OCc1ccc2nonc2c1)c1ccc(F)c(O)c1` [CP9135, 4′-Fluoro-3′-hydroxyacetophenone-O—[(benzo[c][1,2,5]oxadiazol-5-yl)methyl]oxime], for which the activity at 1 µM in series [2] was found to be 66%. Moreover, the activity at 10 µM in series [2] (l0 μM) was 90%. In addition, the “Log IC50 RLM binding” value in series [1] is recorded as −5.28.
`C/C(=N\OCc1ccc([N+](=O)[O-])cc1)c1ccc2c(c1)OCO2` [CP30255, (E)-3′,4′-Methylenedioxyacetophenone O-4-Nitrobenzyl Oxime] gave a melting point of 158.7 to 160.5 °C.
Regarding `COc1cc(-c2ccccc2)c(/C(C)=N/OCc2ccc([N+](=O)[O-])cc2)cc1O` [CP30329, (E)-5′-Hydroxy-4′-methoxy-2′-phenylacetophenone O-4-Nitrobenzyl Oxime], in series [2] (l0 μM), the activity at 10 µM was 55%. Moreover, the “Log IC50 RLM binding” value in series [1] is −6.2.
As for `COc1cc(C2CCCCC2)c(C(C)=NOCc2ccc([N+](=O)[O-])cc2)cc1O` [CP30424, 2′-Cyclohexyl-5′-hydroxy-4′-methoxyacetophenone O-4-Nitrobenzyl Oxime], the activity at 1 µM in series [2] turned out to be 83%. In addition, the “Log IC50 RLM binding” value in series [1] is on record as −6.18.
Consider `COc1ccc(C(=NOCc2ccc([N+](=O)[O-])cc2)[C@H]2CC[C@@H](CCO)CC2)cc1O` [CP30348-1, cis-(3-Hydroxy-4-methoxyphenyl)-4-(2-hydroxyethyl)cyclohexylmethanone O-4-Nitrobenzyl Oxime], for which the “Effects on PGE2 release in J774 macrophages at 1 μM as a % of LPS/IFNγ control, mean” value in series [2] was 124 % of LPS/IFNγ control. Moreover, the activity at 10 µM in series [2] (l0 μM) was found to be 91%. Moreover, the “Log IC50 RLM binding” value in series [1] is −6.02.
As to `COc1ccc(/C(C)=N/OCc2ccc([N+](=O)[O-])cc2)cc1OC` [CP30257, (E)-3′,4′-Dimethoxyacetophenone O-4-Nitrobenzyl Oxime], the melting point lay in the range of 118.4 to 121 °C.
Same read-out and setting: the figure for `COc1cc(/C(C)=N/OCc2ccc3nonc3c2)ccc1F` [CP9129, 4′-Fluoro-3′-methoxyacetophenone-O-[(benzo[c][1,2,5]oxadiazol-5-yl)methyl]oxime] is 65 °C.
For the compound `C/C(=N\OCc1ccc2nonc2c1)c1ccc(O)c(F)c1` [CP9128, 3′-Fluoro-4′-hydroxyacetophenone-O-[(benzo[c][1,2,5]oxadiazol-5-yl)methyl]oxime], in series [2], the activity at 1 µM worked out at 62%. The activity at 10 µM in series [2] (l0 μM) worked out at 65%. Further, the “Log IC50 RLM binding” value in series [1] is recorded as −5.9.
For the compound `COc1ccc(/C(C)=N/OCc2ccc(C#N)cc2)cc1O` [CP30283, (E)-3′-Hydroxy-4′-methoxyacetophenone O-4-Cyanobenzyl Oxime], the melting point lay in the range of 125.9 to 129.7 °C. The “Log IC50 RLM binding” value in series [1] was −6.05.
With `COC(=O)c1ccc(CO/N=C(\C)c2ccc(OC)c(O)c2)cc1` [CP30263, (E)-3′-Hydroxy-4′-methoxyacetophenone O-4-Carbomethoxybenzyl Oxime], the melting point fell in the range of 97.7 to 98.7 °C. Moreover, the “Log IC50 RLM binding” value in series [1] is recorded as −6.46.
`C/C(=N\OCc1ccc([N+](=O)[O-])cc1)c1cccc(O)c1` [CP30260, (E)-3′-Hydroxyacetophenone O-4-Nitrobenzyl Oxime] came in with a melting point of 123.6 to 125.3 °C.
On to `COc1cc(/C(C)=N/OCc2ccc([N+](=O)[O-])cc2)ccc1O` [CP30261, (E)-4′-Hydroxy-3′-methoxyacetophenone O-4-Nitrobenzyl Oxime], for which the melting point is 118.4 to 121.1 °C. Moreover, the “Log IC50 RLM binding” value in series [1] is −6.65.
`C/C(=N\OCc1ccc([N+](=O)[O-])cc1)c1ccccc1` [CP30252, (E)-Acetophenone O-4-Nitrobenzyl Oxime] gave a melting point of 91.3 to 92.3 °C.
Turning to `COc1ccc(C(=NOCc2ccc([N+](=O)[O-])cc2)[C@H]2CC[C@H](CCO)CC2)cc1O` [CP30347, trans-(3-Hydroxy-4-methoxyphenyl)-4-(2-hydroxyethyl)cyclohexylmethanone O-4-Nitrobenzyl Oxime], the activity at 1 µM in series [2] is 102%. Further, the activity at 10 µM in series [2] (l0 μM) is 68%. In series [1], the “Log IC50 RLM binding” value was −5.75.
Turning to `COc1ccc(/C(C)=N/OCc2cccc(C)c2)cc1O` [CP30264, (E)-3′-Hydroxy-4′-methoxyacetophenone O-3-Methylbenzyl Oxime], the activity at 1 µM in series [2] came out at 77%. In addition, the activity at 10 µM in series [2] (l0 μM) was 74%. Moreover, the “Log IC50 RLM binding” value in series [1] is given as −6.96.
As to `COc1cc(-c2ccc(F)cc2)c(/C(C)=N/OCc2ccc([N+](=O)[O-])cc2)cc1O` [CP30344, (E)-2′-(4-Fluorophenyl)-5′-hydroxy-4′-methoxyacetophenone O-4-Nitrobenzyl Oxime], in series [2], the activity at 1 µM amounted to 111%. Moreover, the activity at 10 µM in series [2] (l0 μM) amounted to 94%. The “Log IC50 RLM binding” value in series [1] is recorded as −5.43.
Turning to `COc1cc(-c2ccc(OC)c(OC)c2)c(/C(C)=N/OCc2ccc([N+](=O)[O-])cc2)cc1O` [CP30331, (E)-5′-Hydroxy-4′-methoxy-2′-(3,4-dimethoxyphenyl)acetophenone O-4-Nitrobenzyl Oxime], in series [2] (l0 μM), the activity at 10 µM amounted to 28%. The “Log IC50 RLM binding” value in series [1] is reported as −6.14.
`COc1cc(-c2ccc(OC(F)(F)F)cc2)c(/C(C)=N/OCc2ccc([N+](=O)[O-])cc2)cc1O` [CP30343, (E)-2′-(4-Trifluoromethoxyphenyl)-5′-hydroxy-4′-methoxyacetophenone O-4-Nitrobenzyl Oxime]: the activity at 1 µM in series [2] was determined as 65%. In series [2] (l0 μM), the activity at 10 µM is 51%. Also, in series [1], the “Log IC50 RLM binding” value is on record as −6.23.

(Values after patent publication US8536157B2, “Non-steroidal compounds” (The University of Melbourne, priority 2007, dated 2013).)
